BindingDB's records for doi:10.1021/acs.jmedchem.5b01559 (University of Siena, 2016)

These molecules were tested against Cannabinoid receptor 2 (Homo sapiens, UniProt P34972) (assay: Displacement of [3H]-CP-55940 from human recombinant CB2 receptor expressed in HEK293 cells after 90 mins by Competition binding assay).
Sequence of Cannabinoid receptor 2 (P34972 whole entry): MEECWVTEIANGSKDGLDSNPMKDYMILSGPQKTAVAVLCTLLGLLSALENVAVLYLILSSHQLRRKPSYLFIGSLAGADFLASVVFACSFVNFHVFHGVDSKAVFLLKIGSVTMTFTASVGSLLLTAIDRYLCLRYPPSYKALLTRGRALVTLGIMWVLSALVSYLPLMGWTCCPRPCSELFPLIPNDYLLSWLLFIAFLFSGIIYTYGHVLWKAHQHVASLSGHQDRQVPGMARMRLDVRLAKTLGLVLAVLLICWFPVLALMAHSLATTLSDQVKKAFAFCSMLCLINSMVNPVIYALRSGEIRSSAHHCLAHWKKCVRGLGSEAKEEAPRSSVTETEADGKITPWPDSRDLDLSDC

Row | SMILES | Ki [nM]
1 | CCCCCn1c(=O)c(C(=O)NC23CC4CC(CC(C4)C2)C3)c(O)c2cc(C(C)C)ccc21 | 0.53
2 | CCCCCn1c(=O)c(C(=O)NC23CC4CC(CC(C4)C2)C3)c(O)c2ccc(F)cc21 | 0.93
3 | CC(C)c1ccc2c(c1)c(=O)c(C(=O)NC13CC4CC(CC(C4)C1)C3)cn2CCN(C)C | 146
4 | COCCOCn1cc(C(=O)NC23CC4CC(CC(C4)C2)C3)c(=O)c2cc(C(C)C)ccc21 | 480
5 | CC(C)c1ccc2c(c1)c(=O)c(C(=O)NC13CC4CC(CC(C4)C1)C3)cn2CCN1CCS(=O)(=O)CC1 | 1930
6 | CN(C)CCn1cc(C(=O)NC23CC4CC(CC(C4)C2)C3)c(=O)c2ccc(F)cc21 | 60
7 | COCCOCn1cc(C(=O)NC23CC4CC(CC(C4)C2)C3)c(=O)c2ccc(F)cc21 | 56
8 | O=C(NC12CC3CC(CC(C3)C1)C2)c1cn(CCN2CCS(=O)(=O)CC2)c2cc(F)ccc2c1=O | 246
9 | CC(C)c1cc2c(=O)c(C(=O)NC34CC5CC(CC(C5)C3)C4)cn(CCN(C)C)c2cc1F | 11
10 | CCCCCn1c(=O)c(C(=O)NC23CC4CC(CC(C4)C2)C3)c(O)c2cc(C(C)C)c(F)cc21 | 66
11 | O=C(NCC1CCCCC1)c1c(O)c2ccccc2n(CCCCO)c1=O | 41
12 | O=C(NCc1ccc(F)cc1)c1c(O)c2cc(-c3ccco3)ccc2n(CCCCO)c1=O | 253
13 | COc1ccc(CNC(=O)c2c(O)c3cc(-c4cccs4)ccc3n(CCCCO)c2=O)cc1 | 2240
14 | CCCCCn1c(=O)c(C(=O)NCc2ccc(OC)cc2)c(O)c2cc(-c3cccs3)ccc21 | 20
